Test results: patent US10626113B2, “Phosphodiesterase inhibitors and uses thereof” (THE TRUSTEES OF COLUMBIA UNIVERSITY IN THE CITY OF NEW YORK, priority 2012, dated 2020)

Tests used:
PDE5 = PDE5 (Homo sapiens (Human), UniProt O76074); assay: PDE5 inhibition assay (BPS PDE assay kit, fluorescence polarization); type: biochemical
Method: Materials and Methods: PDE5 inhibition was assayed at BPS Bioscience (San Diego, Calif.) using BPS PDE assay kits (BPS Catalog number 60300, enzyme lot 090810). Test compounds were supplied as liquid solutions of 10 mM concentration in DMSO. Sildenafil, used as a standard was dissolved in DMSO. Intermediate dilutions were 10% DMSO in PDE assay buffer and tests at ranges from 0.1 to 100 nM. 0.1 ng of enzyme was used per reaction, and the substrate was 100 nM FAM-cGMP.
(§1) Assay conditions: A series of dilutions of the test compounds were prepared with 10% DMSO in assay buffer and 5 μl of the dilution was added to a 50 μl reaction so that the final concentration of DMSO is 1% in all of reactions. The enzymatic reactions were conducted at room temperature for 60 minutes in a 50 μl mixture containing PDE assay buffer, 100 nM FAM-cAMP or 100 nM FAM-cGMP, a PDE enzyme, and the test compound. After the enzymatic reaction, 100 μl of a binding solution (1:100 dilution of the binding agent with the binding agent diluent) was added to each reaction and the reaction was performed at room temperature for 60 minutes. Fluorescence intensity was measured at an excitation of 485 nm and an emission of 528 nm using a Tecan Infinite M1000 microplate reader.
(§2) Data analysis: PDE activity assays were performed in duplicate at each concentration. Fluorescence intensity is converted to fluorescence polarization using the Tecan Magellan6 software. The fluorescence polarization data were analyzed using the computer software, Graphpad Prism. The fluorescence polarization (FPt) in absence of the compound in each data set was defined as 100% activity. In the absence of PDE and the compound, the value of fluorescent polarization (FPb) in each data set was defined as 0% activity. The percent activity in the presence of the compound was calculated according to the following equation: % activity=(FP−FPb)/(FPt−FPb)×100%, where FP=the fluorescence polarization in the presence of the compound.
The values of % activity versus a series of compound concentrations were then plotted using non-linear regression analysis of Sigmoidal dose-response curve generated with the equation Y=B+(T−B)/1+10^((LogEC50-X)×Hill Slope), where Y=percent activity, B=minimum percent activity, T=maximum percent activity, X=logarithm of compound and Hill Slope=slope factor or Hill coefficient. The IC50 value was determined by the concentration causing a half-maximal percent activity.

PDE6 = PDE6 inhibition assay (fluorescence polarization); type: biochemical; details: Table 1
Method: as §1, with “The” for “Assay conditions: A series of dilutions of the test compounds were prepared with 10% DMSO in assay buffer and 5 μl of the dilution was added to a 50 μl reaction so that the final concentration of DMSO is 1% in all of reactions. The”
as §2, with “Fluorescence” for “Data analysis: PDE activity assays were performed in duplicate at each concentration. Fluorescence”
The IC50 value was determined by the concentration causing a half-maximal percent activity.

APP/PS1 mice = assay: Preliminary studies with sildenafil in APP/PS1 mice; type: in vivo; details: persist beyond the administration of the inhibitor
Method: Slices from transgenic mice treated with the compound had 226.23%±6.72 potentiation compared to 164.12%±10.37 in slices from vehicle-treated transgenic mice (FIG. 3). Residual potentiation recorded during the last 5 minutes of a 2 hr recording following tetanic stimulation of the Schaffer collateral fibers at the CA3-CA1 connection.

Structure (SMILES)	IC50 (PDE5; Table 1, 100 nM FAM-cGMP)	IC50 (PDE6)	IC50 (PDE5; Table 3)	effects on synaptic and cognitive abnormalities in APP/PS1 mice (APP/PS1 mice)
COc1ccc(CNc2c3c(nc4ccc(Br)cc24)CCN(C)C3)cc1Cl [A, 8-bromo-N-(3-chloro-4-methoxybenzyl)-2-methyl-1,2,3,4-tetrahydrobenzo[b][1,6]naphthyridin-10-amine]	21.6 nM	–	–	–
[2H]C([2H])(Nc1c2c(nc3ccc(C#N)cc13)CCN(C(C)=O)C2)c1ccc(OC)c(Cl)c1 [M]	–	–	0.044 nM	–
COc1ccc(CNc2c3c(nc4ccc(C#N)cc24)CCNC3)cc1Cl [G, 10-((3-chloro-4-methoxybenzyl)amino)-1,2,3,4-tetrahydrobenzo[b][1,6]naphthyridine-8-carbonitrile]	1.55 nM	> 100 nM	–	–
CCCc1nn(C)c2c(=O)[nH]c(-c3cc(S(=O)(=O)N4CCN(C)CC4)ccc3OCC)nc12 [sildenafil]	–	–	–	prolonged beneficial effects

Continued, in another order:

IC50 (PDE5; Table 1, 100 nM FAM-cGMP)	IC50 (PDE6)	Structure (SMILES)	IC50 (PDE5; Table 3)	effects on synaptic and cognitive abnormalities in APP/PS1 mice (APP/PS1 mice)
0.07 nM	30 nM	CCc1cc(C#N)cc2c(NCc3ccc(OC)c(Cl)c3)c3c(nc12)CCN(C)C3 [D, 10-[(3-chloro-4-methoxybenzyl)amino]-6-ethyl-2-methyl-1,2,3,4-tetrahydrobenzo[b][1,6]naphthyridine-8-carbonitrile]	–	–
43.8 nM	6620 nM	COc1ccc(CNc2c3c(nc4ccc(C#N)cc24)NCCNC3=O)cc1Cl [E, 6-[(3-chloro-4-methoxybenzyl)amino]-5-oxo-2,3,4,5-tetrahydro-1H-[1,4]diazepino[5,6-b]quinoline-8-carbonitrile]	–	–
5.4 nM	–	COc1ccc(CNc2c3c(nc4ccc(Br)cc24)CCNC3)cc1Cl [F, 8-bromo-N-(3-chloro-4-methoxybenzyl)-1,2,3,4-tetrahydrobenzo[b][1,6]naphthyridin-10-amine]	–	–
